Data on 22 compounds can be found in patent US10376502B2, “Alkylated imino sugars exhibiting glucosidase inhibition and their method of use” (Baruch S. Blumberg Institute, priority 2012, dated 2019).

pEC50: −log10 of the molar value. Where only a bound is given, the exact number is not on record here.

In one experiment the test system is their target viruses.
Assay: not given
Conditions: against their target viruses; cited from earlier work.
Consider `CCCC(=O)O[C@H]1CN2CC[C@H](O)[C@@H]2[C@@H](O)[C@@H]1O` [Cellgosovir], for which the “concentrations to achieve EC50 values in tissue culture” value is recorded as “near millimolar”.

As for `CCCCN1C[C@H](O)[C@@H](O)[C@H](O)[C@H]1CO` [NBDNJ, N-butyl-DNJ], the “concentrations to achieve EC50 values in tissue culture” value is on record as “near millimolar”.

The test system of the next experiment is BVDV. Kind of experiment: BVDV single cycle virus yield reduction assay with plaque titration. The format is cell-based, BVDV (NADL strain). Conditions: Bovine viral diarrhea virus isolates and strains; MDBK cells, MOI 0.5, 22 hours post infection; compound 0.16 μM to 100 μM. The procedure:
Cells and viruses: BVDV free MDBK cells (CCL 22) were obtained from the American Type Culture Collection and propagated in DMEMIF12 essential medium supplemented with penicillin (500 U/ml), streptomycin (500 U/ml), and 10% heat inactivated horse serum (Invitrogen). Cells were maintained in a humidified incubator at 37° C. with 5% C02. BVDV (NADL strain). For infections, virus inoculum was added in complete medium and adsorbed for 1 hour at 37‘C’, the inoculum was then removed, the cells washed once with medium and fresh medium containing compounds added. Virus stocks were prepared by freeze thawing the infected cells and culture supernatant three times followed by centrifugation at 1,000 g for 5 min., Stock titers were determined, and stocks were aliquoted and stored at −80° C. WNV was obtained from a eDNA clone of a human 2002 isolate from Texas; virus obtained from BHK cells electroporated with the in vitro synthesized RNA from this eDNA clone was passaged in Vero cells before use in antiviral assays. Dengue virus (DV) serotype 2 was a New Guinea C virus that had been passaged 28 times in suckling mouse brain, twice in Vero cells, and once in C6/36 mosquito cells.
BVDV antiviral and plaque assays: To evaluate antiviral activity against BVDV, a single cycle virus yield reduction assay was performed in the presence of from 0.16 μM to 100 μM through 5-fold dilution. Specifically, 2×10^5 MDBK cells/well were plated in 24 well plates. Twenty four hours later, the cells were infected with BVDV at multiplicity of infection (MOI) of 0.5 PFU/cell in 100 uL complete media. After adsorption for 1 hour at 37° C., the inoculum was removed, and cells were washed with media before media containing vehicle or from 0.16 μM to 100 μM through 5-fold dilution of test compound was added. At 22 hours post infection, both cells and media were collected and freeze-thawed three times before the virus was tittered. For BVDV virus, titer determination, 10^−2, 10^−3, 10^−4 dilutions of virus were inoculated onto MDBK cells as described previously. After absorption and washing the cells were overlaid with medium containing methylcellulose or soft agar and incubated at 37° C. for 3 days or until plaques were visible. Plaques were counted directly under the microscope or after staining with crystal violet in 70% methanol for 15 minutes.
Usually pEC50 stands for the EC50 on a negative log10 scale, so that one unit is a factor of ten. High values mean a low EC50, low ones a high EC50. Broadly, the EC90 is the concentration at which the effect reaches the 90% level. Lower therefore signals greater potency. `CC1CCCCC1N(CCCCCCN1C[C@H](O)[C@@H](O)[C@H](O)[C@H]1CO)C(=O)OC(C)(C)C` (some centres unmarked) [Entry 1] had a pEC50 of 6.40 and an EC90 of 3.5 µM. Compound `CC1CCCCC1NCCCCCCN1C[C@H](O)[C@@H](O)[C@H](O)[C@H]1CO` (some centres unmarked) [Entry 2] had a pEC50 of 4.00. On to `CC(C)(C)C(=O)N(CCCCCCN1C[C@H](O)[C@@H](O)[C@H](O)[C@H]1CO)C1CCCCC1` [Entry 3], for which the pEC50 was 6.70 and the EC90 came to 13 µM. `CC(=O)N(CCCCCCN1C[C@H](O)[C@@H](O)[C@H](O)[C@H]1CO)c1cc(F)ccc1F` [Entry 4] gave a pEC50 of 5.30. For the compound `CC(=O)N(CCCCCCN1C[C@H](O)[C@@H](O)[C@H](O)[C@H]1CO)c1ccc(F)cc1F` [Entry 5], the pEC50 was 5.22 and the EC90 came to 67 µM. The matching figures for `CC(C)(C)C(=O)N(CCCCCCN1C[C@H](O)[C@@H](O)[C@H](O)[C@H]1CO)c1cc(F)ccc1F` [Entry 6]: 6.40 and 18 µM. `CC(C)(C)C(=O)N(CCCCCCN1C[C@H](O)[C@@H](O)[C@H](O)[C@H]1CO)c1ccc(F)cc1F` [Entry 7] had a pEC50 of 6.60 and an EC90 of 45 µM. `CC(C)C(=O)N(CCCCCCN1C[C@H](O)[C@@H](O)[C@H](O)[C@H]1CO)C1CCCCC1` [Entry 8] had a pEC50 of 6.35 and a concentration for an effect of 90% (EC90) of 25 µM.

In turn, `CC(C)(C)CC(=O)N(CCCCCCN1C[C@H](O)[C@@H](O)[C@H](O)[C@H]1CO)C1CCCCC1` [Entry 9] gave a pEC50 of 6.74 and an EC90 of 4 µM. Consider `CC(C)(C)C(=O)N(CCCCCCN1C[C@H](O)[C@@H](O)[C@H](O)[C@H]1CO)C1CC1` [Entry 10], for which the pEC50 is 5.43. Compound `CC(C)(C)C(=O)N(CCCCCCN1C[C@H](O)[C@@H](O)[C@H](O)[C@H]1CO)C1CCC1` [Entry 11] had a pEC50 of 6.10. Take `CC(C)(C)C(=O)N(CCCCCCN1C[C@H](O)[C@@H](O)[C@H](O)[C@H]1CO)C1CCCC1` [Entry 12]: the negative-log EC50 (pEC50) was 6.07 and the EC90 is 32 µM. Compound `CC(C)(C)C(=O)N(CCCCCCN1C[C@H](O)[C@@H](O)[C@H](O)[C@H]1CO)C1CCCCCC1` [Entry 13] had a pEC50 of 6.40 and a 90% effect concentration (EC90) of 9 µM.

For `CC(C)(C)C(=O)N(CCCCCCN1[C@H](CO)[C@@H](O)[C@H](O)[C@H]1CO)C1CCCCC1` [Entry 14], the pEC50 is 4.68. Take `CC(C)(C)C(=O)Nc1cccc(CCCN2C[C@H](O)[C@@H](O)[C@H](O)[C@H]2CO)c1` [Entry 15]: the pEC50 was 5.62.

In turn, `CC(C)(C)C(=O)Nc1ccc(CCCN2C[C@H](O)[C@@H](O)[C@H](O)[C@H]2CO)cc1` [Entry 16] had a pEC50 of less than 4.00. Compound `CC(C)(C)S(=O)(=O)N(CCCCCCN1C[C@H](O)[C@@H](O)[C@H](O)[C@H]1CO)C1CCCCC1` [Entry 17] gave a negative-log EC50 (pEC50) of 6.51 and an EC90 of 50 µM. The matching figures for `O=S(=O)(c1ccccc1)N(CCCCCCN1C[C@H](O)[C@@H](O)[C@H](O)[C@H]1CO)C1CCCCC1` [Entry 18]: 6.30 and 18 µM. For `CC(C)(C)N[S+]([O-])N(CCCCCCN1C[C@H](O)[C@@H](O)[C@H](O)[C@H]1CO)C1CCCCC1` (some centres unmarked) [Entry 19], in that order: 6.52 and 25 µM.

`O=C(c1ccccc1)N(CCCCCCN1C[C@H](O)[C@@H](O)[C@H](O)[C@H]1CO)C1CCCCC1` [Entry 20] had a pEC50 of 6.49 and an EC90 of 11 µM.
